Source: paper PMC12606464, “Investigating NFE2L1 activators for targeted protein aggregate clearance: a follow-up study” (RSC Medicinal Chemistry, 2025)

Key:
NFE2L1 pathway = test: 3×PSMA4-ARE-LUC dual luciferase reporter assay in HEK293 cells; type: cell-based, human; settings: Homo sapiens; 5 μM, 16 h, HEK293, luminescence relative to DMSO-treated cells; read-out: NFE2L1 activation [5 μM]
Excerpt: In our previous work,[43] we developed a library of NFE2L1 stimulators using a cell-based luciferase reporter assay. This system was based on three tandem copies of the antioxidant response element (ARE) derived from the NFE2L1 target gene proteasome subunit alpha type-4 (3xPSMA4, PSMA4-ARE-LUC). It was designed to detect the proteasome “bounce-back” response induced by proteasome inhibitors such as MG132 or bortezomib.[22,43,45,46] The reporter assay was adapted to a 384-well format and used to evaluate a new set of RUN compounds designed around the structural framework of the RUN-47 activator. We focused on identifying compounds that increased the 3×PSMA4-ARE-LUC signal (Fig. 1A), while simultaneously assessing cytotoxicity (see the SI, Fig. S2). […] In contrast, thiourea- and urea-containing derivatives generally produced only weak to intermediate responses, rarely exceeding a fold change of 7.
Fig. 1 (A) Targeted library screening of RUN compounds using the 3×PSMA4-ARE-LUC dual reporter assay in HEK293 cells. Cells were exposed to RUN compounds (5 μM) for 16 hours, and luciferase activity was measured. Data are presented as the mean ± SD from three independent experiments (n = 3). Results are shown as a fold change in luminescence relative to DMSO-treated cells. Selected hit compounds are highlighted in distinct colours. (B) RUN-89 specifically activates the NFE2L1 pathway. The DDI2 knockout (KO) and parental (WT) HCT116 cells were transfected with the 3×PSMA4-ARE-LUC reporter and treated with 0.5 μM bortezomib (BTZ) and 5 μM RUN-89 for 16 hours. Data are presented as the Geomean ± GeoSD of three independent experiments (n = 3). Statistical analysis was performed on log2-transformed values using two-way repeated-measures ANOVA followed by Šídak's multiple comparison test. (C) RUN-89 selectively triggers downstream signaling events associated with NFE2L1 gene expression. HEK293 cells were transfected with lipid nanoparticles (LNPs) carrying siRNAs targeting NFE2L1 or NFE2L2. LNPs formulated with non-targeting siRNA served as a negative control. Following 24 hours of incubation, cells were treated with 7.5 μM RUN-89 or DMSO (vehicle) for an additional 16 hours. Expression of the proteasomal subunit gene PSMC4 was then quantified by RT-qPCR. Data are shown as the Geomean ± GeoSD from three independent biological replicates (n = 3). Log2-transformed data were analyzed using two-way repeated-measures ANOVA with the Geisser–Greenhouse correction, followed by Tukey's multiple comparison test with individual variances computed for each comparison. Additional results for NFE2L1, NFE2L2, PSMB7, and PSMD12 are presented in SI Fig. S10.
Figure S1: Concentration–response of luciferase cell-based assay (PSMA4-ARE-luc2P reporter) on treatment with RUN-81, RUN-89, and RUN-94. Concentration is plotted on the X-axis. Dose–response relationships were analyzed using a four-parameter logistic curve (4PL), or a bell-shaped dose-response curve, both with weighting 1/Y^2. Dotted lines represent 95% confidence bands. Calculated EC₅₀ values, curve parameters, and asymmetrical confidence intervals are summarized in the accompanying table . Data are presented as mean ± SD from four independent experiments (n=4).
(§1) 2 Biology Experimental Procedures
(§2) Safety statement: No unexpected or unusually high safety hazards were encountered. […]
Most of the cell lines were cultured in Dulbecco's Modified Eagle Medium (DMEM) enriched with 10% fetal bovine serum (FBS) and 2 mM L-glutamine, under standard conditions of 37 °C with 5% CO₂. DNA transfection was performed with Lipofectamine 2000, following the manufacturer's instructions. Transgenic cells were then selected with either G418 (400 µg/mL) or hygromycin B (450 µg/mL), based on the selection marker encoded by the plasmid used. Cell viability was evaluated using the […]

HEK293 cells = test: alamarBlue cytotoxicity assessment in HEK293 cells; type: cell-based, human; settings: 16 h
Method: Figure S2: Concentration-dependent cytotoxicity assessment of RUN compounds.
HEK293 cells were treated for 16 hours with increasing concentrations of RUN compounds (1.25 µM; 2.5 µM; 5; 7.5 and 10 µM) or DMSO (negative control). Cell viability was determined using the alamarBlue assay following the protocol of Riss.(1) Data are presented as means ± SD from three independent experiments (n = 3). Statistical analysis was done using repeated measures one-way ANOVA with Geisser–Greenhouse correction, followed by Dunnett’s multiple comparisons test. *p<0.05. Detailed results of the analysis are shown in […]
(1 picture or pasted object on this page, not shown here)
as §1, §2
Cell lines were sourced from the ATCC (USA) and/or ECACC (UK), namely HCT116 (human colorectal carcinoma), ATCC CCL-247 (RRID:CVCL_0291), HEK-293 (human embryonic kidney), ATCC CRL-1573 (RRID:CVCL_0045), SH-SY5Y (human neuroblastoma), ATCC CRL-2266 (RRID:CVCL_0019). The characteristics of DDI2 knockout cells derived from HCT116 cells have been described previously (Sedlacek et al., 2025). All cell lines were tested for mycoplasma contamination. Most of the cell lines were cultured in Dulbecco's Modified Eagle Medium (DMEM) enriched with 10% fetal bovine serum (FBS) and 2 mM L-glutamine, under standard conditions of 37 °C with 5% CO₂. DNA transfection was performed with Lipofectamine 2000, following the manufacturer's instructions. Transgenic cells were then selected with either G418 (400 µg/mL) or hygromycin B (450 µg/mL), based on the selection marker encoded by the plasmid used. […]

[1] = HEK293, alamarBlue, concentration not given

Row | SMILES | fold induction at 5 µM (NFE2L1 pathway) | Tox [% of ctrl.] (HEK293 cells; [1]) | Tox [% of ctrl.] (HEK293 cells; human)
1 | COc1ccc(/C=C2\CC(NC(=O)CCN)C/C(=C\c3ccc(OC)c(OC)c3)C2=O)cc1OC (centres unmarked) [RUN-104] | 0.8 | 105% of ctrl. | 
2 | COc1ccc(/C=C2\CN(C(=O)CCCN)C/C(=C\c3ccc(OC)c(OC)c3)C2=O)cc1OC [RUN-115] | 1.8 | 85% of ctrl. | 
3 | CCOC(=O)CNC(=O)N1C/C(=C\c2ccc(OC)c(OC)c2)C(=O)/C(=C/c2ccc(OC)c(OC)c2)C1 [RUN-74] | 7.1 | 81% of ctrl. | 
4 | COc1ccc(/C=C2\CN(C(=S)Nc3cccnc3)C/C(=C\c3ccc(OC)c(OC)c3)C2=O)cc1OC [RUN-73] | 1.9 | 84% of ctrl. | 
5 | COc1ccc(/C=C2\CC(NC(=O)CCN(C)C)C/C(=C\c3ccc(OC)c(OC)c3)C2=O)cc1OC (centres unmarked) [RUN-101] | 2 | 97% of ctrl. | 
6 | COc1cccc(NC(=O)N2C/C(=C\c3ccc(OC)c(OC)c3)C(=O)/C(=C/c3ccc(OC)c(OC)c3)C2)c1 [RUN-76] | 6.8 | 88% of ctrl. | 
7 | COc1ccc(/C=C2/C(=O)/C(=C/c3ccc(OC)c(OC)c3)C3CCC2N3)cc1OC [RUN-78] | 1.4 |  | 89% of ctrl.
8 | COc1ccc(/C=C2\CC(NC(=O)Cc3c[nH]cn3)C/C(=C\c3ccc(OC)c(OC)c3)C2=O)cc1OC (centres unmarked) [RUN-95] | 2 | 96% of ctrl. | 
9 | COc1ccc(/C=C2\CC(NC(=O)CN3CCN(C)CC3)C/C(=C\c3ccc(OC)c(OC)c3)C2=O)cc1OC (centres unmarked) [RUN-90] | 2.8 | 87% of ctrl. | 
10 | COc1ccc(/C=C2\CC(NC(=O)CN)C/C(=C\c3ccc(OC)c(OC)c3)C2=O)cc1OC.O=C(O)C(F)(F)F (centres unmarked) [RUN-92] | 1.6 | 90% of ctrl. | 
11 | COc1ccc(/C=C2\CN(C(=O)CCCN(C)C)C/C(=C\c3ccc(OC)c(OC)c3)C2=O)cc1OC.O=C(O)C(F)(F)F [RUN-106] | 2.8 | 75% of ctrl. | 
12 | COc1ccc(/C=C2\CN(C(=O)CN)C/C(=C\c3ccc(OC)c(OC)c3)C2=O)cc1OC [RUN-85] | 2.7 |  | 
13 | COc1ccc(/C=C2\CN(C(=O)Cc3c[nH]cn3)C/C(=C\c3ccc(OC)c(OC)c3)C2=O)cc1OC [RUN-109] | 4.3 | 78% of ctrl. | 
14 | COc1ccc(/C=C2\CN(C(=O)c3ccccn3)C/C(=C\c3ccc(OC)c(OC)c3)C2=O)cc1OC [RUN-108] | 0.9 | 83% of ctrl. | 
15 | COc1ccc(/C=C2\CN(C(=O)CN3CCOCC3)C/C(=C\c3ccc(OC)c(OC)c3)C2=O)cc1OC.O=C(O)C(F)(F)F [RUN-112] | 6.6 | 81% of ctrl. | 
16 | COc1ccc(/C=C2\CC(NC(=O)Cn3ccnc3)C/C(=C\c3ccc(OC)c(OC)c3)C2=O)cc1OC (centres unmarked) [RUN-99] | 1.6 | 103% of ctrl. | 
17 | COCCOCCOCC(=O)N1C/C(=C\c2ccc(OC)c(OC)c2)C(=O)/C(=C/c2ccc(OC)c(OC)c2)C1 [RUN-82] | 3.2 | 85% of ctrl. | 
18 | COc1ccc(/C=C2\CC(NC(=O)C3CCC(=O)N3)C/C(=C\c3ccc(OC)c(OC)c3)C2=O)cc1OC (centres unmarked) [RUN-97] | 1.6 | 99% of ctrl. | 
19 | COc1ccc(/C=C2\CC(NC(=O)c3ncccc3C)C/C(=C\c3ccc(OC)c(OC)c3)C2=O)cc1OC (centres unmarked) [RUN-93] | 11.9 | 75% of ctrl. | 
20 | COc1ccc(/C=C2\CC(NC(=O)CCCN(C)C)C/C(=C\c3ccc(OC)c(OC)c3)C2=O)cc1OC (centres unmarked) [RUN-91] | 1.6 | 95% of ctrl. | 
21 | COc1ccc(/C=C2/C(=O)/C(=C/c3ccc(OC)c(OC)c3)C3CCC2N3Cc2ccc(C#N)cc2)cc1OC [RUN-80] | 2 |  | 98% of ctrl.
22 | COc1ccc(/C=C2\CN(C(=S)NCCN3CCOCC3)C/C(=C\c3ccc(OC)c(OC)c3)C2=O)cc1OC [RUN-77] | 2.5 | 84% of ctrl. | 
23 | CCOC(=O)CCNC(=O)N1C/C(=C\c2ccc(OC)c(OC)c2)C(=O)/C(=C/c2ccc(OC)c(OC)c2)C1 [RUN-75] | 6.8 | 82% of ctrl. | 
24 | COc1ccc(/C=C2\CC(NC(=O)CN(C)C)C/C(=C\c3ccc(OC)c(OC)c3)C2=O)cc1OC.O=C(O)C(F)(F)F (centres unmarked) [RUN-86] | 2 | 96% of ctrl. | 
25 | COc1ccc(/C=C2\CN(C(=O)C34CCN(CC3)CC4)C/C(=C\c3ccc(OC)c(OC)c3)C2=O)cc1OC [RUN-83] | 1.5 |  | 87% of ctrl.
26 | COc1ccc(/C=C2\CN(C(=O)Cn3ccnc3)C/C(=C\c3ccc(OC)c(OC)c3)C2=O)cc1OC [RUN-111] | 2.7 | 78% of ctrl. | 
27 | COc1ccc(/C=C2\CC(NC(=O)CN3CCOCC3)C/C(=C\c3ccc(OC)c(OC)c3)C2=O)cc1OC.O=C(O)C(F)(F)F (centres unmarked) [RUN-98] | 2.1 | 102% of ctrl. | 
28 | COc1ccc(/C=C2\CC(NC(=O)C34CCN(CC3)CC4)C/C(=C\c3ccc(OC)c(OC)c3)C2=O)cc1OC (centres unmarked) [RUN-87] | 1 |  | 101% of ctrl.
29 | COc1ccc(/C=C2\CN(C(=O)C3CCCN3)C/C(=C\c3ccc(OC)c(OC)c3)C2=O)cc1OC (centres unmarked) [RUN-113] | 3.8 | 94% of ctrl. | 
30 | COc1ccc(/C=C2\CC(NC(=O)[C@@H]3CCCN3)C/C(=C\c3ccc(OC)c(OC)c3)C2=O)cc1OC.O=C(O)C(F)(F)F (some centres unmarked) [RUN-96] | 2.2 | 93% of ctrl. | 
